Assay results from patent US6576607B1, “Methods using CNS neurite outgrowth modulators” (Acorda Therapeutics, priority 1995, dated 2003).
Values belong to the molecule of their own block, whether it stands above or below them.

How the values were obtained:
[1] = system: mouse mesencephalon cells; assay: Mesencephalon cells cultured on L1-coated plates, stained for dopamine; type: cell-based; conditions: plates coated with laminin, 7 days
Procedure: An experiment was performed to further elucidate the activity of L1 with CNS nerve tissue. Specifically, aliquot samples of mouse mesencephalon cells were plated and cultured on four separate plates having media prepared as follows: the first control plate was coated with poly-L-lysine alone; a second plate was coated with poly-L-lysine and L1; a third control plate was coated with poly-L-lysine and laminin; and a fourth plate was coated with poly-L-lysine, laminin and L1. All plates received aliquot amounts of cells and were incubated under identical conditions. After 7 days, the plates were all stained for the presence of dopamine and thereafter observed.

NMDA receptor = assay: NMDA receptor-mediated EPSPs in hippocampal slices; type: cell-based, rat; conditions: 30 μM, in the presence of CNQX
Procedure: NMDA receptor-mediated EPSP's were isolated by applying 30 μM of the non-NMDA blocker 6-cyano-7-nitroquinoxaline-2,3-dione (CNQX; Tocris) starting 20 minutes prior to the application of antibodies or glycopeptides.

[2] = system: pyramidal neurons in the CA1 region of rat hippocampal slices; assay: Long term potentiation (LTP) induced by theta burst stimulation in hippocampal slices; type: cell-based; conditions: perfusion of 10 μM
Procedure: Transverse hippocampal slices (400 μm) from halothane-anaesthetized male Wistar rats (180-220 g) were prepared using standard techniques. Slices were maintained in an interface chamber and initially allowed to recover for 45 min. in a hyperosmolar (320 mOsm/kg) artificial cerebrospinal fluid (ACSF) at room temperature. The bath temperature was then raised to 30° C. and the medium was changed to a normotonic ACSF (307 mOsm/kg) containing (in mM): NaCl, 124.0; KCl, 2.5; MgSO24, 2.0: CaCl2, 2.5; KH2PO4, 1.25; NaHCO3, 26.0; glucose, 10; sucrose, 4; bubbled with 95% O2/5% CO2 (pH 7.4); perfusion rate: 0.75 ml/min. The Schaffer collateral/commissural fibers were stimulated by twisted platinum-iridium wires (50 μm diameter) placed in the stratum radiatum of the CA1 region. Test stimuli consisted in monophasic impulses of 100 μs duration every 30 seconds and the stimulus strength was adjusted to obtain 30% of the maximal EPSP amplitude (maximal EPSP without superimposed population spike). EPSP's were recorded from the CA1 stratum radiatum by means of 2 glass micropipettes (2 M NaCl, 1-5 MΩ) positioned about […] apart from the stimulation electrode on each side. […]

small cerebellar neurons = assay: Neurite outgrowth of small cerebellar neurons on substrate-coated L1 monoclonal antibodies; type: cell-based; conditions: neurons on L1 and antibody 557.B6
From the text: To determine the domains of neural cell adhesion molecule L1 involved in neurite outgrowth, monoclonal antibodies against L1 were generated and their effects on neurite outgrowth of small cerebellar neurons in culture investigated. […] These observations indicate for the first time a distinct site on cell surface-bound L1 as a prominent signal transducing domain through which the recognition events appear to be funnelled to trigger neurite outgrowth, increase turnover of inositol phosphates and elevate intracellular levels of Ca^2+.

[3] = system: mesencephalic neurons (DBH+); assay: Survival and neurite outgrowth of DBH+ mesencephalic neurons; type: cell-based, rat; conditions: DBH+ neurons after 7 days in vitro, mean ± SEM
Procedure: Soluble L1 was made in COS cells as a recombinant L1-Fc fusion protein by the procedure described in Neuron 14:57-66, 1995. The recombinant protein was purified by Protein A affinity chromatography, and was used either as a substrate coated onto plastic or as a soluble molecule added to the culture medium at approximately 1-10 μg/ml. Neurite outgrowth and survival of mesencephalic neurons from day 17 rat embryos were examined in culture after 7 days in vitro maintenance. Dopaminergic neurons were recognized by immunostaining for dopamine-β-hydroxylase (DBH) and quantified using IBAS morphometric equipment. Cultures with added soluble L1-Fc were maintained on poly-DL-ornithine (PORN) and substrate-coated L1-Fc was added on top of previously coated PORN (under conditions described in Appel et al, J. Neuroscience 13:4764-4775, 1993). NCAM-Fc was used as a control.

cerebellar neurons = assay: Neurite outgrowth of small cerebellar neurons in coculture with L929 transfectants; type: cell-based, mouse; conditions: CHL1-transfected L929 cells, 20 h
Procedure: CHL1 activity was also tested with cerebellar neurons as set forth with reference to FIG. 29. Thus, cerebellar neurons derived from 6-7 day old mice were cultured for 20 h on CHL1-transfectants (CHL1), CHL1-transfected non-expressing L929 cells (Mock), parental L929, or L1-transfectants (L1). The results are likewise set forth in paragraphs that correspond in designation to the sub-figures within FIG. 29. […] The mean of total neurite length of three experiments is shown. Error bars are standard error of the mean. (B) CHL1 promotes neurite outgrowth also of small cerebellar neurons better than L1. The total neurite length is given as percent of L929 cells as a control (ctr). Error bars are standard error of the mean. (C) Increase of neurite outgrowth of cerebellar neurons by CHL1 affects all size classes of neurites. Cumulative frequency of distribution plot of the total neurite length of the percentage of neurons with neurites longer than or equal to a certain length x (vertical axis) was plotted as a function of neurite length x (horizontal axis).

hippocampal neurons = assay: Neurite outgrowth of hippocampal neurons in coculture with L929 transfectants; type: cell-based, rat; conditions: CHL1-transfected L929 cells, 11-12 h coculture
Procedure: In addition to the studies conducted and reviewed above, further experiments were conducted withy CHL1 to define its role in neurite outgrowth and the parameters of its action. Thus and as depicted and described earlier with reference to FIGS. 28A-C, hippocampal neurons were co-cultured with L929 transfectants and L929 parental cells. Particularly, hippocampal neurons derived from rats of embryonal day 18 were cultured in subconfluent monolayers of L929-transfectants or parental L929 cells. After 11-12 h of coculture the cells were fixed and labeled with monoclonal antibody 412 (recognizing the HNK-1 carbohydrate epitope) or a polyclonal antibody against NCAM. For measurement of the total neurite length only the longest neurite per each branch was determined due to the highly branched character of the neurons in these cultures. The results of the experiments are given below with letter reference to the respective figures within FIG. 28. […] Neurons were cocultured with CHL1-transfectants (CHL1) or parental L929 cells (L929) with (+AB) or without polyclonal antibodies against recombinant CHL1 (500 μg/ml of purified IgG, added 45 min after plating) and on L1-transfectants. The mean total neurite length of 4-5 independent experiments is shown. Error bars are standard error of the mean. (B) Different CHL1 lines promote neurite outgrowth better than L1. […]

Molecule: laminin
neurite outgrowth and cell number [1]: greater neurite outgrowth, but not more cells than those coated with L1

NMDA receptor-mediated EPSPs (NMDA receptor): completely suppressed
Molecule: N[C@H](CCCP(=O)(O)O)C(=O)O [D-AP5, D(−)-2-amino-5-phosphonopentanoic acid]
induction of LTP [2]: totally prevented

Molecule: pertussis toxin
inhibition of neurite outgrowth (small cerebellar neurons): inhibit neurite outgrowth on L1 and antibody 557.B6

Molecule: soluble L1: recombinant L1-Fc fusion protein made in COS cells, added to the culture medium at 1-10 μg/ml
number of neurons ([3]; per unit field): 98 ± 7
length of neurites (total neurite length per neuron) [3]: 135 ± 27 μm

B1: CHL1: close homolog of L1, presented by CHL1-transfected L929 cells (protein)
chain: MMELPLCGRGLILSLIFLLLKLSAAEIPLSVQQVPTIVKQSYVQVAFPFDEYFQIECEAKGNPEPIFSWTKDDKPFDLSDPRIIAANNSGTFKIPNEGHISHFQGKYRCFASNRLGTAVSEEIEFIVPGVPKFPKEKIEPIDVEEGDSIVLPCNPPKGLPPLHIYWMNIELEHIEQDERVYMSQRGDLYFANVEENDSRNDYCCFAAFPKLRTIVQKMPMKLTVNSSNSIKQRKPKLLLPPAQMGSLSAKTVLKGDTLLLECFAEGLPTPHIQWSKPGSELPEGRATIEVHEKTLKIENISYQDRGNYRCTANNLLGKASHDFHVTVEEPPRWKKKPQSAVYSTGSSGILLCEAEGEPQPTIKWRLNGLPIEKHPFPGDFMFPREISFTNLLFNHTGVYQCEASNIHGTILANANIDVIDVIPLIKTKNEENYATVVGYSAFLHCEYFASPKATVVWEVADETHPLEGDRYHTHENGTLEIYRTTEEDAGSYSCWVDNAMGKAVITANLDIRNATKLRVSPKNPRIPKSHVLELYCESQCDSHLKHSLKLSWSKDGEAFEMNGTEDGRIVIDGAYLTISNITAEDQGVYSCSAQTSLDSTSEKTQVTVLGVPDPPETFTCQKDKNRSVRLLREAGDDHNSKSASTIVEFEGNREEPGKWEELTRVQGEETDVVLSLAPYVRYQFRVTAVNEVGRSHASLPSDHHETPPAAPDKNPQNIRVQASQPKEMIIKWEPLKSMEQNGPGLEYKVSWKPQGAPEEWEEEIVTNHTLRVMTPTVYAPYDVKVQAINQLGSSPDPQPVTLYSGEDYPSTAPVIQRVDVMNSTLVKVTWSSIPKETVHGLLRGYQINWWKTKSLLDGRTHPKEVNILRFSGQRNSGMVPSLDPFSEFHLTVLAYNSKGAGPESEPYIFQTPEGVPEQPSFLKVIKVDKDTATLSWGLPKKLNGNLTGYLLQYQIINDTYELGELNEINVTTPSKSSWHLSNLNSTTKYKFYLRACTSRGCGKPISEEGATLGEGSKGIRKITEGVNVTQKIHPVEVLVPGAEHIVHLMTKNWGDNDSIFQDVIETRGREYAGLYDDISTQGWFIGLMCAIALLTLILLTICFVKRNRGGKYSVKEKEDLHPDPEVQSAKDETFGEYSDSDEKPLKGSLRSLNRNMQPTESADSLVEYGEGDQSIFNEDGSFIGAYTGAKEKGSVESNGSSTATFPLRA
modifications: murine
notes: close homolog of L1, presented by CHL1-transfected L929 cells
neurite outgrowth (cerebellar neurons): promotes neurite outgrowth of small cerebellar neurons
neurite outgrowth (hippocampal neurons): Neurite outgrowth is promoted by CHL1 and inhibitable by antibodies
